# Measured values as given in article PMC9516332 (Frontiers in Oncology, 2022).
# Where two headings read alike, the source gives them in different places.
# What was measured:
# [1] = system: AP-1060 (ETV6-NTRK3); test: Cell viability assay; settings: read-out: IC50 in cell proliferation assay
# [2] = system: 134 cancer cell lines; test: Cell viability assay (ATPlite, 72 hours), IC50 on cancer cell line panel
smiles,measurement,setting,value
Cc1cc(Nc2ncc(Cl)c(Nc3ccccc3S(=O)(=O)C(C)C)n2)c(OC(C)C)cc1C1CCNCC1 [ceritinib],IC50,[1],1.77 µM
same,IC50,"[2]; HEC-6, read-out: IC50 in cell proliferation assay, HEC-6 cell line (EGFR p.A289V)",3.25 µM
same,IC50,"[2]; Homo sapiens, 769-P, read-out: IC50 in cell proliferation assay, cell line 769-P",2.85 µM
same,IC50,"[2]; Homo sapiens, 786-0, read-out: IC50 in cell proliferation assay, cell line 786-O",3.28 µM
same,IC50,"[2]; Homo sapiens, A 172, read-out: IC50 in cell proliferation assay, cell line A-172",3.94 µM
same,IC50,"[2]; Homo sapiens, A204, read-out: IC50 in cell proliferation assay, cell line A-204",2.68 µM
same,IC50,"[2]; Homo sapiens, A498, read-out: IC50 in cell proliferation assay, cell line A-498",4.17 µM
same,IC50,"[2]; Homo sapiens, A549, read-out: IC50 in cell proliferation assay, cell line A-549",4.56 µM
same,IC50,"[2]; Homo sapiens, A704, read-out: IC50 in cell proliferation assay, cell line A-704",6.19 µM
same,IC50,"[2]; Homo sapiens, A-375, read-out: IC50 in cell proliferation assay, cell line A-375 (BRAF p.V600E)",1.61 µM
same,IC50,"[2]; Homo sapiens, A-427, read-out: IC50 in cell proliferation assay, cell line A-427",1.45 µM
same,IC50,"[2]; Homo sapiens, ACHN, read-out: IC50 in cell proliferation assay, cell line ACHN",4.78 µM
same,IC50,"[2]; Homo sapiens, AN3-CA, read-out: IC50 in cell proliferation assay, cell line AN3-CA (FGFR2 p.N549K)",4.14 µM
same,IC50,"[2]; Homo sapiens, ASPC1, read-out: IC50 in cell proliferation assay, cell line AsPC-1",1.34 µM
same,IC50,"[2]; Homo sapiens, AU565, read-out: IC50 in cell proliferation assay, cell line AU565 (ERBB2 amplification)",3.26 µM
same,IC50,"[2]; Homo sapiens, BT-20, read-out: IC50 in cell proliferation assay, cell line BT-20",6.05 µM
same,IC50,"[2]; Homo sapiens, BT-474, read-out: IC50 in cell proliferation assay, cell line BT-474 (ERBB2 amplification)",3.2 µM
same,IC50,"[2]; Homo sapiens, BT-549, read-out: IC50 in cell proliferation assay, cell line BT-549",3.83 µM
same,IC50,"[2]; Homo sapiens, BXPC-3, read-out: IC50 in cell proliferation assay, cell line BxPC-3",1.7 µM
same,IC50,"[2]; Homo sapiens, C-33-A, read-out: IC50 in cell proliferation assay, cell line C-33 A",4.46 µM
same,IC50,"[2]; Homo sapiens, CAL-27, read-out: IC50 in cell proliferation assay, cell line CAL-27",3.02 µM
same,IC50,"[2]; Homo sapiens, CCF-STTG1, read-out: IC50 in cell proliferation assay, cell line CCF-STTG1",4.5 µM
same,IC50,"[2]; Homo sapiens, CCRF-CEM, read-out: IC50 in cell proliferation assay, cell line CCRF-CEM",3.89 µM
same,IC50,"[2]; Homo sapiens, COLO 205, read-out: IC50 in cell proliferation assay, cell line COLO 205 (BRAF p.V600E)",1.88 µM
same,IC50,"[2]; Homo sapiens, COLO-829, read-out: IC50 in cell proliferation assay, cell line COLO 829 (BRAF p.V600E)",3.26 µM
same,IC50,"[2]; Homo sapiens, DLD-1, read-out: IC50 in cell proliferation assay, cell line DLD-1",4.38 µM
same,IC50,"[2]; Homo sapiens, DU-4475, read-out: IC50 in cell proliferation assay, cell line DU4475 (BRAF p.V600E)",2.18 µM
same,IC50,"[2]; Homo sapiens, Daoy, read-out: IC50 in cell proliferation assay, cell line Daoy",4.95 µM
same,IC50,"[2]; Homo sapiens, DoTc2-4510, read-out: IC50 in cell proliferation assay, cell line DoTc2 4510",1.19 µM
same,IC50,"[2]; Homo sapiens, EOL1, read-out: IC50 in cell proliferation assay, cell line EoL-1 (FIP1L1-PDGFRA)",0.564 µM
same,IC50,"[2]; Homo sapiens, FaDu, read-out: IC50 in cell proliferation assay, cell line FaDu",3.25 µM
same,IC50,"[2]; Homo sapiens, G-361, read-out: IC50 in cell proliferation assay, cell line G-361 (BRAF p.V600E)",1.51 µM
same,IC50,"[2]; Homo sapiens, HCC827, read-out: IC50 in cell proliferation assay, cell line HCC827 (EGFR exon19del)",3.71 µM
same,IC50,"[2]; Homo sapiens, HCC4006, read-out: IC50 in cell proliferation assay, cell line HCC4006 (EGFR exon19del)",2.73 µM
same,IC50,"[2]; Homo sapiens, HCT-15, read-out: IC50 in cell proliferation assay, cell line HCT 15",3.81 µM
same,IC50,"[2]; Homo sapiens, HCT-116, read-out: IC50 in cell proliferation assay, cell line HCT 116",2.72 µM
same,IC50,"[2]; Homo sapiens, HEC-1, read-out: IC50 in cell proliferation assay, HEC-1 cell line",2.71 µM
same,IC50,"[2]; Homo sapiens, HEC-1B, read-out: IC50 in cell proliferation assay, HEC-1-B cell line (EGFR p.A864V)",1.96 µM
same,IC50,"[2]; Homo sapiens, HL-60, read-out: IC50 in cell proliferation assay, HL-60 cell line",0.951 µM
same,IC50,"[2]; Homo sapiens, HT, read-out: IC50 in cell proliferation assay, HT cell line",4.74 µM
same,IC50,"[2]; Homo sapiens, HT-1080, read-out: IC50 in cell proliferation assay, HT-1080 cell line",2 µM
same,IC50,"[2]; Homo sapiens, Hs746T, read-out: IC50 in cell proliferation assay, Hs 746.T cell line (MET exon14skip + amplification)",3.34 µM
same,IC50,"[2]; Homo sapiens, Hs-578T, read-out: IC50 in cell proliferation assay, Hs 578T cell line",4.07 µM
same,IC50,"[2]; Homo sapiens, HuTu80, read-out: IC50 in cell proliferation assay, HuTu 80 cell line",1.67 µM
same,IC50,"[2]; Homo sapiens, J82, read-out: IC50 in cell proliferation assay, J82 cell line",4.5 µM
same,IC50,"[2]; Homo sapiens, Jurkat E6.1, read-out: IC50 in cell proliferation assay, Jurkat E6.1 cell line",4.07 µM
same,IC50,"[2]; Homo sapiens, K562, read-out: IC50 in cell proliferation assay, K-562 cell line",3.97 µM
same,IC50,"[2]; Homo sapiens, KATO III, read-out: IC50 in cell proliferation assay, KATO III cell line (FGFR2 amplification)",2.36 µM
same,IC50,"[2]; Homo sapiens, KG-1, read-out: IC50 in cell proliferation assay, KG-1 cell line (FGFR1OP2-FGFR1)",3.85 µM
same,IC50,"[2]; Homo sapiens, KLE, read-out: IC50 in cell proliferation assay, KLE cell line",3.58 µM
same,IC50,"[2]; Homo sapiens, KMS-11, read-out: IC50 in cell proliferation assay, KMS-11 cell line (FGFR3 p.Y373C)",1.31 µM
same,IC50,"[2]; Homo sapiens, KU812, read-out: IC50 in cell proliferation assay, Ku812 cell line",1.88 µM
same,IC50,"[2]; Homo sapiens, Kasumi 1, read-out: IC50 in cell proliferation assay, Kasumi-1 cell line (KIT p.N822K)",1.04 µM
same,IC50,"[2]; Homo sapiens, LC-2-ad, read-out: IC50 in cell proliferation assay, LC-2/ad cell line (CCDC6-RET)",2.02 µM
same,IC50,"[2]; Homo sapiens, LNCaP-Clone-FGC, read-out: IC50 in cell proliferation assay, LNCaP clone FGC cell line",3.72 µM
same,IC50,"[2]; Homo sapiens, LS174T, read-out: IC50 in cell proliferation assay, LS174T cell line",2 µM
same,IC50,"[2]; Homo sapiens, LS-411N, read-out: IC50 in cell proliferation assay, LS411N cell line (BRAF p.V600E)",1.97 µM
same,IC50,"[2]; Homo sapiens, LoVo, read-out: IC50 in cell proliferation assay, LoVo cell line",3.47 µM
same,IC50,"[2]; Homo sapiens, MCF7, read-out: IC50 in cell proliferation assay, MCF-7 cell line",2.77 µM
same,IC50,"[2]; Homo sapiens, MDA-MB-231, read-out: IC50 in cell proliferation assay, MDA-MB-231 cell line",0.782 µM
same,IC50,"[2]; Homo sapiens, MDA-MB-453, read-out: IC50 in cell proliferation assay, MDA-MB-453 cell line",0.944 µM
same,IC50,"[2]; Homo sapiens, MDA-MB-468, read-out: IC50 in cell proliferation assay, MDA-MB-468 cell line",4.45 µM
same,IC50,"[2]; Homo sapiens, MG-63, read-out: IC50 in cell proliferation assay, MG-63 cell line",3.04 µM
same,IC50,"[2]; Homo sapiens, MIA PaCa-2, read-out: IC50 in cell proliferation assay, MIA PaCa-2 cell line",2.19 µM
same,IC50,"[2]; Homo sapiens, MKN-45, read-out: IC50 in cell proliferation assay, MKN45 cell line (MET amplification)",3.52 µM
same,IC50,"[2]; Homo sapiens, MOLM-13, read-out: IC50 in cell proliferation assay, MOLM-13 cell line (FLT3 ITD)",0.995 µM
same,IC50,"[2]; Homo sapiens, MOLT-4, read-out: IC50 in cell proliferation assay, MOLT-4 cell line",3.76 µM
